“And” between values parts separate entries of the source, which are not always exact repeats. Equal values may be shown once. “Also recorded” adds a separate entry of the source.
Columns and labels:
Format in all cases: in vivo, mouse
[1] = system: CREB binding to Ripk1 promoter; assay: ChIP-qPCR with anti-CREB on Ripk1 gene promoter in IECs of experimental colitis mice; conditions: for CREB binding Ripk1 promoter: DSS-treated mice, Figure 7j; for Binding between CREB and Ripk1 promoter (ChIP): IECs of DSS-induced colitis mice
Method: Total RNA was extracted from cells or colonic tissues using Trizol (Thermo) under the manufacturer’s instructions. First strand cDNA was synthesized using the PrimeScript RT Reagent Kit (480, Abm). SYBR Green Master Mix reagents (Q331-02, Vazyme) and primer mixtures (Table S1) were used for the real-time PCR. The ChIP assays were performed using EZ ChIP kit (17-371, Millipore). The procedure was as described in the kit provided by the manufacturer. Briefly, isolated IECs were fixed by 1% formaldehyde, and fragmented by sonication. CREB was then used for immunoprecipitation. After washing and reverse-crosslinking, the precipitated DNA was amplified by primers and quantified by the qPCR. Primer sequences can be found in Supplementary Table 1.

[2] = system: DSS-induced colitis in P2Y14R△IEC mice; assay: DSS-induced colitis in P2Y14R△IEC mice treated with HDL-16 or PPTN; parameters: DAI: scale not given here; conditions: for Weight loss, diarrhea, rectal bleeding, mucosal barrier injury, inflammatory cell infiltration in P2Y14R△IEC mice / p-MLKL in P2Y14R△IEC mice (western blot): DSS-fed P2Y14R△IEC mice; for p-MLKL in P2Y14R△IEC mice (western blot): colon tissues; for DAI / Weight: P2Y14R fl/fl vil-cre mice + DSS; for Improvement of DSS colitis in P2Y14R△IEC mice: daily administration, DSS feeding P2Y14R△IEC mice
Excerpt: Male, 7-8-week-old, P2Y14R^fl/fl Vil-cre (P2Y14R^∆IEC), P2Y14R^fl/fl Lyz2-cre and WT mice with C57BL/6 J background were used to establish experimental (acute) colitis model. P2Y14R^fl/fl C57BL/6 J mice were used as control for P2Y14R^fl/fl Vil-cre (P2Y14R^∆IEC) and P2Y14R^fl/fl Lyz2-cre mice. WT C57BL/6 J mice were used for the pharmacological study of HDL-16. Colitis was induced by dextran sodium sulfate (DSS; 36-50 kDa; 3% w/v; MP Biomedicals, Solon, Ohio, USA), added to the drinking water ad libitum for 7 days. Control mice received standard drinking water. The Disease Activity Index (DAI) was evaluated daily as described previously. After 7 days of DSS treatment, mice were euthanized by carbon dioxide inhalation and the colons were measured and then processed for histological analyses, homogenized to extract protein or RNA.
The DSS group and the P2Y14R^△IEC + DSS group were rectally administered with 100 μl vehicle (saline with 0.1% DMSO). The low-dose group of mice was given 10 μM HDL-16, 100 μl per mouse, while the high-dose group was given 20 μM HDL-16, 100 μl per mouse. […]
immunoblotting with corresponding antibodies in the IECs from DSS treated mice with HDL-16 or […]
the entire experimental period. d Body weight change and disease activity index evaluation of mice change during the disease process (n = 6 mice per group). e Effects of P2Y14R antagonists on P2Y14R△IEC mice mucosal barrier function as measured by serum levels of FITC-dextran based on intestinal permeability methods (n = 6 mice per group). f The length of colons from mice 7 days after DSS treatment (n = 6 mice per group). g The H&E staining in the colon tissues of DSS-treated mice (Scale bar = 200 μm). h The immunofluorescent images of colon tissues stained with Claudin-1, Occludin and ZO-1, the principal components of tight junction (Scale bar = 200 μm). i Phosphorylation MLKL as well as its protein levels were analyzed by immunoblotting with corresponding antibodies in colon tissues (n = 5 mice per group). The data represent the mean ± SD for b, e, f and i, the data represent the mean ± SEM for d. The p-values were determined by One-way analysis of variance (ANOVA) with Tukey multiple comparison test for e, f, i, and two-way analysis of variance (ANOVA) with Šídák's multiple comparisons test for b and d. For a, g and h, […]

mucosal barrier function = assay: Intestinal permeability, serum FITC-dextran in DSS-treated mice
Method: The mice treated with DSS for 7 days were fasted for 6 h, given FITC-dextran (3-5 kDa, FD4, sigma) intragastrically at a dose of 60 mg kg^−1. After 3 h, hemolysis-free sera were collected and the fluorescence intensity of serum was read by a multi-mode microplate reader (excitation, 488 nm; emission, 520 nm).

[3] = system: MLKL, PKA, CREB phosphorylation; assay: Immunoblotting of p-MLKL, p-PKA, p-CREB in colon tissues/IECs of DSS-treated mice; conditions: for Activation of cAMP/PKA/CREB pathway (p-PKA, p-CREB): DSS-induced colitis mice; for Necroptosis of IECs (p-MLKL level and TEM imaging): high-dose, 20 μM, during DSS feeding
Method: The data represent the mean ± SD for c, e, and h–l, the data represent the mean ± SEM for b.
Colon tissues derived from the euthanized by carbon dioxide inhalation mice were opened longitudinally and washed in pre-cooling PBS for three times. Then, the tissues were cut into 3 mm^2 pieces and incubated with 5 mM EDTA solution in PBS on a constant temperature shaker at 200 rpm for 25 min at 37°C. Then, let it stand at room temperature for 30 seconds and collected the supernatant. Next, repeated the above process once. Supernatants from the above step were combined and centrifuged at 500 g for 8 min. Abandon the supernatants and obtain IECs.
Tissues and cells were lysed using RIPA lysis buffer (Beyotime Biotechnology) containing protease and phosphatase inhibitor, homogenated, and centrifuged. The protein concentration was determined by BCA protein assay (Beyotime Biotechnology). Equal concentrations of proteins were separated in a 10% SDS-PAGE and transferred to PVDF membrane. The membrane was blocked using 5% milk in TBST, probed with primary antibody, RIPK1 (17519-1-AP, Proteintech, 1:1000), MLKL (GTX107538-100, GeneTex, 1:1000), RIPK3 (17563-1-AP, Proteintech, 1:1000), p-MLKL (EPR9514, Abcam, 1:1000), PKA (bs-0520R, Bioss, 1:1000), p-PKA (#9621, Cell signaling, 1:1000), CREB (AF6188, Affinity, 1:1000), p-CREB (AF3189, Affinity, 1:1000), P2Y14R (bs-12028R, Bioss, 1:1000), GSDMD (ab209845, Abcam, 1:1000), Caspase1 p20 (bs-10442R, Bioss, 1:1000), Bcl-2 (bs-0032R, Bioss, 1:1000), Bax (AF0120, Affinity, 1:1000), Caspase-3 p-17 (Cell Signaling Technology, #9664, 1:1000), β-actin (bs-0061R, Bioss, 1:1000), GAPDH (BS-2188R, Bioss, 1:1000) and corresponding HRP-conjugated antibodies Goat Anti-Rabbit IgG H&L Antibody (bioss, Bs-0295G, 1:8000) or Goat Anti-Mouse IgG H&L Antibody (bioss, Bs-0296G, 1:8000). Densitometry was quantified using ImageJ software.

[4] = HDL-16-H (high dose), Day 1, individual mice
[5] = HDL-16-H (high dose), Day 2, individual mice
[6] = HDL-16-H (high dose), Day 3, individual mice
[7] = HDL-16-H (high dose), Day 4, individual mice
[8] = HDL-16-H (high dose), Day 5, individual mice
[9] = HDL-16-H (high dose), Day 6, individual mice
[10] = HDL-16-H (high dose), Day 7, individual mice
[11] = HDL-16-L (low dose), Day 1, individual mice
[12] = HDL-16-L (low dose), Day 2, individual mice
[13] = DSS-treated mice, group -H (high dose), Figure 7h
[14] = DSS-treated mice, group -L (low dose), Figure 7h
[15] = P2Y14R△IEC mice + DSS + PPTN, individual mice, supplement Figure 4e

## Brc1ccc(NCc2nc3ccccc3o2)cc1 [HDL-16]
[1]; group -H (high dose)
  CREB binding Ripk1 promoter: 68.32% and 67.71% and 73.03%
[1]; group -L (low dose)
  CREB binding Ripk1 promoter: 52.80% and 57.62% and 56.66%
[1]
  Binding between CREB and Ripk1 promoter (ChIP): promoted the binding between CREB and Ripk1 promoter
[2]
  Weight loss, diarrhea, rectal bleeding, mucosal barrier injury, inflammatory cell infiltration in P2Y14R△IEC mice: did not influence DSS-fed induced weight loss
  p-MLKL in P2Y14R△IEC mice (western blot): did not affect DSS-induced upregulation of p-MLKL
  Improvement of DSS colitis in P2Y14R△IEC mice: barely improvement
[2]; [4]
  DAI: 0
  Weight: 100%
[2]; [5]
  DAI: 0
  Weight: 100%
[2]; [6]
  DAI: 0 (5×) and 1
  Weight: 95% (2×) and 100% (4×)
[2]; [7]
  DAI: 1 (5×) and 0
  Weight: 95% (3×) and 100% (2×) and 96%
[2]; [8]
  DAI: 1 (2×) and 0 and 4 (2×) and 2
  Weight: 91% (2×) and 95% (2×) and 100% and 96%
[2]; [9]
  DAI: 1 (3×) and 0 and 4 and 6
  Weight: 91% (3×) and 95% (2×) and 100%
[2]; [10]
  DAI: 1 (2×) and 0 and 2 and 6 and 8
  Weight: 91% (4×) and 95% and 100%
[2]; [11]
  DAI: 0
  Weight: 100%
[2]; [12]
  DAI: 0 (5×) and 1
  Weight: 100%
[2]; HDL-16-L (low dose), Day 3, individual mice
  Weight: 100% (5×) and 96%
[2]; HDL-16-L (low dose), Day 4, individual mice
  Weight: 95% (4×) and 100% and 96%
[2]; HDL-16-L (low dose), Day 5, individual mice
  Weight: 95% (4×) and 100% and 91%
[2]; HDL-16-L (low dose), Day 6, individual mice
  Weight: 95% (2×) and 100% and 91% and 90% (2×)
[2]; HDL-16-L (low dose), Day 7, individual mice
  Weight: 95% (3×) and 100% and 91% and 90%
Mucosal barrier function; high-dose, 20 μM, 100 μl per mouse
  Serum level of FITC-dextran in DSS-treated mice relative to treated group: significantly higher
[3]
  Activation of cAMP/PKA/CREB pathway (p-PKA, p-CREB): significantly increased the level of p-PKA and p-CREB; also recorded: upregulated the activation of the cAMP/PKA/CREB pathway
  Necroptosis of IECs (p-MLKL level and TEM imaging): prominently suppression in necroptosis
[3]; [13]
  P-MLKL/MLKL: 1.521 and 1.265 and 1.621 and 1.356 and 1.5395
  P-PKA/PKA: 1.707 and 1.759 and 1.709 and 1.416 and 2.236
  p-CREB/CREB: 1.095 and 0.9798 and 1.543 and 0.8826 and 0.8002
[3]; [14]
  P-MLKL/MLKL: 1.7141 and 1.386 and 1.7276 and 1.656 and 1.549
  P-PKA/PKA: 1.542 and 1.79 and 2.009 and 1.5655 and 1.809
  p-CREB/CREB: 0.8983 and 0.8748 and 1.433 and 0.9557 and 0.9121
[3]; P2Y14R△IEC mice + DSS + HDL-16-H (high dose), individual replicates
  P-MLKL/MLKL: 1.288 and 1.248 and 1.394 and 1.076 and 1.4285
[3]; P2Y14R△IEC mice + DSS + HDL-16-L (low dose), individual replicates
  P-MLKL/MLKL: 1.279 and 1.445 and 1.246 and 1.195 and 1.182

## O=C(O)c1cc(-c2ccc(C3CCNCC3)cc2)c2ccc(-c3ccc(C(F)(F)F)cc3)cc2c1 [PPTN, reference compound]
[1]
  CREB binding Ripk1 promoter: 59.41% and 55.99% and 63.77%
  Binding between CREB and Ripk1 promoter (ChIP): promoted the binding between CREB and Ripk1 promoter
[2]
  Weight loss, diarrhea, rectal bleeding, mucosal barrier injury, inflammatory cell infiltration in P2Y14R△IEC mice: did not influence DSS-fed induced weight loss
  p-MLKL in P2Y14R△IEC mice (western blot): did not affect DSS-induced upregulation of p-MLKL
  Improvement of DSS colitis in P2Y14R△IEC mice: barely improvement
[2]; P2Y14R fl/fl vil-cre mice + DSS + PPTN, individual mice
  Colon length: 7 cm and 5.4 cm and 6.3 cm and 5.6 cm and 5.8 cm and 6 cm
Mucosal barrier function; DSS-treated mice, Figure 7e
  CON(ug/ml), serum FITC-dextran: 12.4177 µg/mL and 12.0055 µg/mL and 12.4453 µg/mL and 11.0788 µg/mL and 9.474 µg/mL and 9.103 µg/mL
Mucosal barrier function; [15]
  CON: 6.506 µg/mL and 7.571 µg/mL and 6.5332 µg/mL and 6.645 µg/mL and 6.518 µg/mL and 7.625 µg/mL
  Serum fluorescence intensity: 5968551 and 6689623 and 5987216 and 6062672 and 5977001 and 6726135
[3]
  Activation of cAMP/PKA/CREB pathway (p-PKA, p-CREB): significantly increased the level of p-PKA and p-CREB
  Necroptosis of IECs (p-MLKL level and TEM imaging): prominently suppression in necroptosis
[3]; DSS-treated mice, Figure 7h
  P-MLKL/MLKL: 1.3877 and 1.2109 and 1.586 and 1.421 and 1.9357
  P-PKA/PKA: 2.217 and 1.679 and 2.34 and 2.232 and 2.623
  p-CREB/CREB: 0.8109 and 1.08 and 1.258 and 1.076 and 0.8633
[3]; P2Y14R△IEC mice + DSS + PPTN, individual replicates
  P-MLKL/MLKL: 1.205 and 1.2332 and 1.252 and 1.224 and 1.39

— publication PMC10920779, “Targeting P2Y14R protects against necroptosis of intestinal epithelial cells through PKA/CREB/RIPK1 axis in ulcerative colitis” (Nature Communications, 2024)
